In ChEMBL document CHEMBL3046798 (J Agric Food Chem, 2010):
In brackets after ≈: the same amount, converted by molar mass.

Assays:
[1] = Drug level in Solanum lycopersicum (tomato) green seeds measured 120 days post dose following field application at 2 kg of active ingredient/hectare
[2] = Drug level in Solanum lycopersicum (tomato) green seeds measured 100 days post dose following field application at 2 kg of active ingredient/hectare
[3] = Drug level in Solanum lycopersicum (tomato) green seeds measured 90 days post dose following field application at 2 kg of active ingredient/hectare
[4] = Drug level in Solanum lycopersicum (tomato) green seeds measured 120 days post dose following field application at 1 kg of active ingredient/hectare
[5] = Drug level in Solanum lycopersicum (tomato) green seeds measured 100 days post dose following field application at 1 kg of active ingredient/hectare
[6] = Drug level in Solanum lycopersicum (tomato) green seeds measured 90 days post dose following field application at 1 kg of active ingredient/hectare
[7] = Drug level in Cicer arietinum (chickpea) green seeds measured 100 days post dose following field application at 2 kg of active ingredient/hectare
[8] = Drug level in Cicer arietinum (chickpea) green seeds measured 90 days post dose following field application at 2 kg of active ingredient/hectare
[9] = Drug level in Cicer arietinum (chickpea) green seeds measured 100 days post dose following field application at 1 kg of active ingredient/hectare
[10] = Drug level in Cicer arietinum (chickpea) green seeds measured 90 days post dose following field application at 1 kg of active ingredient/hectare
[11] = Cmax in Solanum lycopersicum (tomato) shoots measured 30 days post dose following field application at 1 and 2 kg of active ingredient/hectare; assay type: ADME, Shoot; conditions: other: field application
[12] = Cmax in Cicer arietinum (chickpea) shoots measured 15 days post dose following field application at 1 and 2 kg of active ingredient/hectare; assay type: ADME, Shoot; conditions: other: field application
Root [13] = assay: Drug translocation in Solanum lycopersicum (tomato) roots assessed as mean drug level measured post dose following field application at 1 and 2 kg of active ingredient/hectare
Root [14] = assay: Drug absorption in Solanum lycopersicum (tomato) roots assessed as mean drug level measured post dose following field application at 1 and 2 kg of active ingredient/hectare
[15] = Drug absorption in Solanum lycopersicum (tomato) roots measured 30 days post dose following field application at 1 and 2 kg of active ingredient/hectare
[16] = Toxicity in Rattus norvegicus (rat); conditions: in vivo
Rotylenchulus reniformis [17] = assay: Nematicidal activity against Rotylenchulus reniformis (reniform nematode) infested tomato plants plots assessed as reduction in nematode population measured 110 days post dose following field application at 1 to 2 kg of active ingredient/hectare; assay type: functional; design: scale not given: the % may be the effect or the level left
Rotylenchulus reniformis [18] = assay: Nematicidal activity against Rotylenchulus reniformis (reniform nematode) infested in tomato plants plots assessed as reduction in nematode population measured 55 days post dose following field application at 1 to 2 kg of active ingredient/hectare; assay type: functional; design: scale not given: the % may be the effect or the level left
Rotylenchulus reniformis [19] = assay: Nematicidal activity against Rotylenchulus reniformis (reniform nematode) infested chickpea plants plots assessed as reduction in nematode population measured 110 days post dose following field application at 1 to 2 kg of active ingredient/hectare; assay type: functional; design: scale not given: the % may be the effect or the level left
Rotylenchulus reniformis [20] = assay: Nematicidal activity against Rotylenchulus reniformis (reniform nematode) infested chickpea plants plots assessed as reduction in nematode population measured 55 days post dose following field application at 1 to 2 kg of active ingredient/hectare; assay type: functional; design: scale not given: the % may be the effect or the level left
Meloidogyne incognita [21] = assay: Nematicidal activity against root-knot nematode Meloidogyne incognita J2 (root-knot nematode) infested tomato plants plots assessed as reduction in nematode population measured 110 days post dose following field application at 1 to 2 kg of active ingredient/hectare; assay type: functional; design: scale not given: the % may be the effect or the level left
Meloidogyne incognita [22] = assay: Nematicidal activity against root-knot nematode Meloidogyne incognita J2 (root-knot nematode) infested chickpea plants plots assessed as reduction in nematode population measured 110 days post dose following field application at 1 to 2 kg of active ingredient/hectare; assay type: functional; design: scale not given: the % may be the effect or the level left
Meloidogyne incognita [23] = assay: Nematicidal activity against root-knot nematode Meloidogyne incognita J2 (root-knot nematode) infested tomato plants plots assessed as reduction in nematode population measured 55 days post dose following field application at 1 to 2 kg of active ingredient/hectare; assay type: functional; design: scale not given: the % may be the effect or the level left
Meloidogyne incognita [24] = assay: Nematicidal activity against root-knot nematode Meloidogyne incognita J2 (root-knot nematode) infested chickpea plants plots assessed as reduction in nematode population measured 55 days post dose following field application at 1 to 2 kg of active ingredient/hectare; assay type: functional; design: scale not given: the % may be the effect or the level left
[25] = Cmax in Cicer arietinum (chickpea) shoots measured 45 days post dose following field application at 1 and 2 kg of active ingredient/hectare; assay type: ADME, Shoot; conditions: other: field application
[26] = Drug level in Cicer arietinum (chickpea) roots measured 15 days post dose following field application at 1 and 2 kg of active ingredient/hectare; assay type: ADME, Root; conditions: other: field application, read-out: Drug uptake
in vivo [27] = conditions: solanum lycopersicum
[28] = Drug level in Cicer arietinum (chickpea) green seeds measured 120 days post dose following field application at 2 kg of active ingredient/hectare
[29] = Drug level in Cicer arietinum (chickpea) green seeds measured 120 days post dose following field application at 1 kg of active ingredient/hectare
[30] = Drug level in Solanum lycopersicum (tomato) roots measured 15 days post dose following field application at 1 and 2 kg of active ingredient/hectare; assay type: ADME, Root; conditions: other: field application, read-out: Drug uptake
[31] = Drug absorption in Cicer arietinum (chickpea) roots measured 45 days post dose following field application at 1 and 2 kg of active ingredient/hectare; conditions: Root
in vivo [32] = conditions: cicer arietinum, Shoot

With `CCOP(=O)(SC(C)CC)SC(C)CC` (stereo unspecified) [CADUSAFOS] the concentration at 2880 h [1] was 3 ng/g, the concentration at 2400 h [2] was 10 ng/g and the concentration at 2160 h ([3]; green seeds) was 40 ng/g. For the same compound, the concentration at 2880 h [4] was 2 ng/g, the concentration at 2400 h [5] was 6 ng/g and the concentration at 2160 h ([6]; green seeds) was 21 ng/g. For the same compound, the concentration at 2400 h ([7]; green seeds) was 5 ng/g, the concentration at 2160 h ([8]; green seeds) was 16 ng/g and the concentration at 2400 h ([9]; green seeds) was 3 ng/g. For the same compound, the concentration at 2160 h ([10]; green seeds) was 9 ng/g, the Cmax [11] was 440 ng/g and the Cmax [12] was 340 ng/g. For the same compound, the Drug transport (Root [13]) was 0.25 µg/g, the Drug absorption (Root [14]) was 2.18 µg/g and the concentration at 720 h ([15]; roots, other: field application) was 3230 ng/g. It also gave an LD50 [16] of 37.1 mg/kg, an Activity (Rotylenchulus reniformis [17]) of 83% and an Activity (Rotylenchulus reniformis [18]) of 39%. It also gave an Activity (Rotylenchulus reniformis [19]) of 45%, an Activity (Rotylenchulus reniformis [20]) of 49% and an Activity (Meloidogyne incognita [21]) of 60%. It also gave an Activity (Meloidogyne incognita [22]) of 79%, an Activity (Meloidogyne incognita [23]) of 57% and an Activity (Meloidogyne incognita [24]) of 66%. For the same compound, the solubility (physchem; buffer) was 248 µg/mL (≈ 917 µM).
Compound `CNC(=O)Oc1cccc2c1OC(C)(C)C2` [CARBOFURAN] has an LD50 [16] of 8 mg/kg and a solubility (physchem; buffer) of 700 µg/mL (≈ 3160 µM).
`CCCCN(CCCC)SN(C)C(=O)Oc1cccc2c1OC(C)(C)C2` [CARBOSULFAN] gave a Cmax [25] of 24800 ng/g, a Drug transport (Root [13]) of 9.52 µg/g and a Drug absorption (Root [14]) of 0.36 µg/g. For the same compound, the concentration at 360 h [26] was 530 ng/g, the LD50 [16] was 209 mg/kg and the Activity (Rotylenchulus reniformis [17]) was 59%. The Activity (Rotylenchulus reniformis [18]) was 23%, the Activity (Rotylenchulus reniformis [19]) was 23% and the Activity (Rotylenchulus reniformis [20]) was 37%. It also gave an Activity (Meloidogyne incognita [21]) of 45%, an Activity (Meloidogyne incognita [22]) of 15% and an Activity (Meloidogyne incognita [23]) of 52%. For the same compound, the Activity (Meloidogyne incognita [24]) was 33% and the Cmax at 1080 h (in vivo [27]; shoots, other: field application) was 31600 ng/g.
Work on `CCOP(=O)(NC(C)C)Oc1ccc(SC)c(C)c1` (stereo unspecified) [PHENAMIPHOS] yielded an LD50 [16] of 16 mg/kg.
For `CCOP(=S)(OCC)SCSCC` [PHORATE], the concentration at 2880 h [1] was 4 ng/g, the concentration at 2400 h [2] was 14 ng/g and the concentration at 2160 h ([3]; green seeds) was 22 ng/g. For the same compound, the concentration at 2880 h [4] was 3 ng/g, the concentration at 2400 h [5] was 10 ng/g and the concentration at 2160 h ([6]; green seeds) was 14 ng/g. It also gave a concentration at 2880 h [28] of 6 ng/g, a concentration at 2400 h ([7]; green seeds) of 19 ng/g and a concentration at 2160 h ([8]; green seeds) of 56 ng/g. The concentration at 2880 h [29] was 3 ng/g, the concentration at 2400 h ([9]; green seeds) was 8 ng/g and the concentration at 2160 h ([10]; green seeds) was 20 ng/g. For the same compound, the Cmax [25] was 680 ng/g, the Drug transport (Root [13]) was 0.41 µg/g and the Drug absorption (Root [14]) was 1.45 µg/g. For the same compound, the concentration at 360 h [30] was 1690 ng/g, the concentration at 360 h [26] was 2310 ng/g and the LD50 [16] was 3.2 mg/kg. It also gave an Activity (Rotylenchulus reniformis [17]) of 45%, an Activity (Rotylenchulus reniformis [18]) of 36% and an Activity (Rotylenchulus reniformis [19]) of 0.9%. The Activity (Rotylenchulus reniformis [20]) was 28%, the Activity (Meloidogyne incognita [21]) was 17% and the Activity (Meloidogyne incognita [22]) was 1%. The Activity (Meloidogyne incognita [23]) was 45%, the Activity (Meloidogyne incognita [24]) was 44% and the solubility (physchem; water) was 50 µg/mL (≈ 192 µM).
Compound `CCOP(=S)(OCC)Oc1ncn(-c2ccccc2)n1` [TRIAZOPHOS] has a concentration at 2160 h [3] of 4 ng/g, a concentration at 2160 h [6] of 2 ng/g and a concentration at 2400 h [7] of 7 ng/g. The concentration at 2160 h [8] was 18 ng/g, the concentration at 2400 h [9] was 4 ng/g and the concentration at 2160 h [10] was 11 ng/g. The Drug transport (Root [13]; Root) was 0.14 µg/g, the Drug absorption (Root [14]; Root) was 2.77 µg/g and the concentration at 1080 h [31] was 1720 ng/g. The concentration at 720 h ([15]; Root) was 7220 ng/g, the LD50 [16] was 68 mg/kg and the Activity (Rotylenchulus reniformis [17]) was 31%. For the same compound, the Activity (Rotylenchulus reniformis [18]) was 30%, the Activity (Rotylenchulus reniformis [19]) was 30% and the Activity (Rotylenchulus reniformis [20]) was 38%. It also gave an Activity (Meloidogyne incognita [21]) of 38%, an Activity (Meloidogyne incognita [22]) of 44% and an Activity (Meloidogyne incognita [23]) of 55%. It also gave an Activity (Meloidogyne incognita [24]) of 63%, a Cmax at 720 h (in vivo [32]) of 250 ng/g and a Cmax at 1080 h (in vivo [27]; Shoot) of 630 ng/g. For the same compound, the solubility (physchem; buffer) was 30 µg/mL (≈ 95.7 µM).
